The nature of data set [1]: Volume of distribution at steady state in mouse at 3 mg/kg, po or 1 mg/kg, iv measured upto 24 hrs by LC-MS/MS analysis. As to conditions: in vivo. It counts as ADME, organism-based.
Data set [2] is described as follows: Half life in mouse at 3 mg/kg, po or 1 mg/kg, iv measured upto 24 hrs by LC-MS/MS analysis. It counts as ADME, organism-based. The note with it: in vivo.
A short description of data set [3]: Drug concentration in SCID mouse plasma at 10 mg/kg, po administered once daily measured at 24 hrs by LC-MS/MS analysis. It counts as ADME, organism-based.
The nature of data set [4]: Volume of distribution at steady state in dog at 3 mg/kg, po or 1 mg/kg, iv measured upto 24 hrs by LC-MS/MS analysis. As to conditions: in vivo. It counts as ADME, organism-based, Canis lupus familiaris.
Data set [5] relates to MCF7. The experiment in a line: Antitumor activity against human MCF7 cells xenografted in SCID mouse assessed as tumor growth inhibition at 3 mg/kg, po administered for 41 to 76 days. As to conditions: time 41-76 day, read-out: TGI. It counts as functional. In general terms: A xenograft is tissue or cells of one species grown in another, often human tumour cells in immunodeficient mice.

For data set [6], the system named is MCF7. The experiment in a line: Antitumor activity against human MCF7 cells xenografted in SCID mouse assessed as tumor growth inhibition at 30 mg/kg, po administered for 5 weeks and measured on day 81. It counts as functional. The note with it: MCF7, 1944 h, time 81 day, read-out: TGI.
For data set [7], the target named is T1, Protein cereblon/Estrogen receptor (Homo sapiens, UniProt P03372+Q96SW2). Nature of the data set: PROTAC activity at CRBN/ERalpha in human MCF7 cells assessed as reduction in ERalpha protein level at 5 nM measured for 4 hrs in presence of cereblon ligand C1 by Western blot analysis. It counts as cell-based. (A western blot detects proteins with antibodies after separation by electrophoresis.)

Data set [8] can be described thus: Drug concentration in SCID mouse plasma at 10 mg/kg, po administered once daily for 3 days measured after 24 hrs by LC-MS/MS analysis. It counts as ADME, organism-based.
In data set [9] the target is T1, Protein cereblon/Estrogen receptor. Nature of the data set: PROTAC activity at CRBN/ERalpha in human MCF7 cells assessed as reduction in ERalpha protein level at 0.3 nM measured at 4 hrs by Western blot analysis. It counts as cell-based.
Another data set addresses Cytochrome P450 2D6 (Homo sapiens, UniProt P10635). Nature of the data set: Inhibition of CYP2D6 in human liver microsomes incubated for 5 mins in presence of NADPH by LC-MS/MS analysis. It counts as ADME, Microsome.
Data set [10] can be described thus: Stability in rat plasma assessed as half life. It counts as ADME, cell-free.
The nature of data set [11]: Drug concentration in SCID mouse tumor at 30 mg/kg, po administered daily for 3 days and measured after 24 hrs by LC-MS/MS analysis. It counts as ADME, organism-based, Neoplasm. The note with it: read-out: Ct.
The target in another data set is Cytochrome P450 2C9 (Homo sapiens, UniProt P11712). The experiment in a line: Inhibition of CYP2C9 in human liver microsomes incubated for 5 mins in presence of NADPH by LC-MS/MS analysis. It counts as ADME, Microsome. (In general: Liver microsomes are a subcellular fraction often used to study metabolism.)
Data set [12] deals with MCF7. The experiment in a line: Antitumor activity against human MCF7 cells xenografted in SCID mouse assessed as tumor growth inhibition at 10 mg/kg, po administered for 41 to 76 days. It counts as functional. As to conditions: time 41-76 day, read-out: TGI.
Data set [13] can be described thus: Cmax in mouse at 3 mg/kg, po or 1 mg/kg, iv measured upto 24 hrs by LC-MS/MS analysis. The note with it: in vivo. It counts as ADME, organism-based.
Another data set concerns the target T2, Cytochrome P450 2B6 (Homo sapiens, UniProt P20813).
T2 sequence (P20813 whole entry): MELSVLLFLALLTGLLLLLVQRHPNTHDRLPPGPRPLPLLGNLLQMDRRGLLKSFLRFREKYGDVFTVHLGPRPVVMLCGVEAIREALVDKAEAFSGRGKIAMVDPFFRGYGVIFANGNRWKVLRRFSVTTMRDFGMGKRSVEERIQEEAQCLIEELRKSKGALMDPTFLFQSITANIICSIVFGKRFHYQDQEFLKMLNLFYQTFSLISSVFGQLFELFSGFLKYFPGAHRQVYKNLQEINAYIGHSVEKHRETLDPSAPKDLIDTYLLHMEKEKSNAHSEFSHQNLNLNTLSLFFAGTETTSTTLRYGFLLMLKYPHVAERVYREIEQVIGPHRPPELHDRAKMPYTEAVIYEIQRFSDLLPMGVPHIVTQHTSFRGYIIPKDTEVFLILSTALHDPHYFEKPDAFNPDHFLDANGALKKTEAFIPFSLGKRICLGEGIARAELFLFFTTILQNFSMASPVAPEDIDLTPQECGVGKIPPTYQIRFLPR
Nature of the data set: Inhibition of CYP2B6 in human liver microsomes preincubated for 5 mins followed by NADPH addition and measured after 10 mins by LC-MS/MS analysis. It counts as ADME, Microsome.

Data set [14] addresses T1, Protein cereblon/Estrogen receptor. The experiment in a line: PROTAC activity at CRBN/ERalpha in human MCF7 cells assessed as effect on GSPT1 level at 0.5 to 500 nM measured for 5 hrs by Western blot analysis. It counts as cell-based. As to conditions: dose 0.5-500 nM.
A short description of data set [15]: AUC (0 to infinity) in rat at 3 mg/kg, po or 1 mg/kg, iv measured upto 24 hrs by LC-MS/MS analysis. It counts as ADME, organism-based. The note with it: in vivo.
A short description of data set [16]: Drug concentration in SCID mouse plasma at 30 mg/kg, po administered daily for 3 days and measured after 24 hrs by LC-MS/MS analysis. It counts as ADME, organism-based.

Activity calls are given as the source filed them. No cut-off for these calls is given here.

T1 sequence (P03372 whole entry, looked up): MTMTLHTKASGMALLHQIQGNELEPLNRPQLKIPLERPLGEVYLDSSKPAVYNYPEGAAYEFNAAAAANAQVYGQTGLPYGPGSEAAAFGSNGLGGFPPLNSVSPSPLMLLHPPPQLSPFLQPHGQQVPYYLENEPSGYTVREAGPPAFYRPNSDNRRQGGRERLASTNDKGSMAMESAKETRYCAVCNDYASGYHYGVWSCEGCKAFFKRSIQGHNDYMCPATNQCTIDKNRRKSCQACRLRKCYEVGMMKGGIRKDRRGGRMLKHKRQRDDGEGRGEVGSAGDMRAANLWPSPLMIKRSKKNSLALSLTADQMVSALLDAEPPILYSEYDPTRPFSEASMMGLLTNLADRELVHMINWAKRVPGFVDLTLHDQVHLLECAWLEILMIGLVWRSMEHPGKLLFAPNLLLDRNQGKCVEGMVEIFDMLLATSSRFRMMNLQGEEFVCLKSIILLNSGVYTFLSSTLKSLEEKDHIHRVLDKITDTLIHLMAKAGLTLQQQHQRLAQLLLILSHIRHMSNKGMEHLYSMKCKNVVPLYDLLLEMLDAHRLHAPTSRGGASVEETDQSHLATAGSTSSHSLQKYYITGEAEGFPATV
T1 sequence (Q96SW2 whole entry, looked up): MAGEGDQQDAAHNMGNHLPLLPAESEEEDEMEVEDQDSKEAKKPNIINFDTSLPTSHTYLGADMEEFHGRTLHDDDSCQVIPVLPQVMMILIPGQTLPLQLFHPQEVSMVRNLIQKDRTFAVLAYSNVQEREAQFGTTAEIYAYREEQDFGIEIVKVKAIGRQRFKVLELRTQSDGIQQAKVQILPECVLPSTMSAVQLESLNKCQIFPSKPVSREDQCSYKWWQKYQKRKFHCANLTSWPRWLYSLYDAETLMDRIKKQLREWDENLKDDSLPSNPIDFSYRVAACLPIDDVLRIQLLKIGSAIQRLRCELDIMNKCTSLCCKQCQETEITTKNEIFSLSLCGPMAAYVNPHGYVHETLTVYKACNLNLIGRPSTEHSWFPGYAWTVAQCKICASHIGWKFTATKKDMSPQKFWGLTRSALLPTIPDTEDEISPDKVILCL
Chain of Cytochrome P450 2C9 (P11712 whole entry): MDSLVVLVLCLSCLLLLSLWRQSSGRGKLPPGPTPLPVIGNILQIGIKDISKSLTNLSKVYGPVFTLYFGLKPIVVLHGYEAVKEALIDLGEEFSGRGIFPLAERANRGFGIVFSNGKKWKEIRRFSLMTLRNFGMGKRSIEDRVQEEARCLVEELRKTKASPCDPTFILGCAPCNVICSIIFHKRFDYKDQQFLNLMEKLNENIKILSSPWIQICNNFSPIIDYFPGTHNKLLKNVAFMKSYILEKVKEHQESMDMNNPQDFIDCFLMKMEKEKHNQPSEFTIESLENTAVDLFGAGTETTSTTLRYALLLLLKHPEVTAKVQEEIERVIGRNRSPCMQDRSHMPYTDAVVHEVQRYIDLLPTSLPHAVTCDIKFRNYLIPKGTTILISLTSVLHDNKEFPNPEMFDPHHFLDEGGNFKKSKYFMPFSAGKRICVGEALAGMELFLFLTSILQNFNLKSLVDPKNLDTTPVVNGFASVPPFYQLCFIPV
Chain of Cytochrome P450 2D6 (P10635 whole entry): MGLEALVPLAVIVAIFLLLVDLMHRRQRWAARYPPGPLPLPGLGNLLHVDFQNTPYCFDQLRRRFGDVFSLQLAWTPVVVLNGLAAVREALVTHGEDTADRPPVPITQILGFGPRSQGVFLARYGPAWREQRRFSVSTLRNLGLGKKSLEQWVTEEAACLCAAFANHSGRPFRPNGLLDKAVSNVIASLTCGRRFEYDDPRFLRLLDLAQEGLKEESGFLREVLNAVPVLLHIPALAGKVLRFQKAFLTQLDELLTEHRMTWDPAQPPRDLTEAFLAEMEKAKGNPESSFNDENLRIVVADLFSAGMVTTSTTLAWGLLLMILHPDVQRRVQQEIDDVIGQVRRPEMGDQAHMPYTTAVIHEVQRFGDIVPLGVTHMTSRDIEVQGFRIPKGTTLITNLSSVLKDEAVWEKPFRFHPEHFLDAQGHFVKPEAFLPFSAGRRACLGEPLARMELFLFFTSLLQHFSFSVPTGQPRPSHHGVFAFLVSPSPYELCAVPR

In the case of `O=C1CC[C@H](N2Cc3c(ccc4c3OCC43CCN(C[C@@H]4CCC5(CCN(c6ccc([C@@H]7c8ccc(O)cc8CC[C@@H]7c7ccccc7)cc6)CC5)OC4)CC3)C2=O)C(=O)N1`, the figures for the Vdss in [1] and in [4] were 5.8 L/kg and 3.2 L/kg, respectively. The results for the t1/2 in [2] and in [10] were 13.3 h and above 4 h, respectively. Also, the concentration at 24 h in [3] was 7 ng/mL. Moreover, the inhibition in vivo at 3 mg/kg with MCF7 [5] was 93%. The inhibition in vivo at 30 mg/kg in the data set on MCF7 [6] stood at 110%. Also, in data set [7], the outcome was inactive. Besides, the concentration at 96 h was found to be 18 ng/mL in [8], 1090 ng/mL in data set [11] and 50 ng/mL in data set [16]. Moreover, the result in data set [9] was Active. Further, the IC50 on Cytochrome P450 2D6 is above 10 µM; on Cytochrome P450 2C9, above 10 µM; against Cytochrome P450 2B6, 2.5 µM. The inhibition in vivo at 10 mg/kg in the data set with MCF7 [12] came to 94%. This compound registered a Cmax in data set [13] of 58.6 ng/mL. In addition, the Activity entry in [14] was “Minimal_effect”. In [15], this compound showed an AUC of 583 ng·h/mL.

What is called IC50 is the point on the concentration scale where inhibition reaches its midpoint. A word on the Cmax: it is the peak of the concentration-time curve. As a reminder, the AUC is the area under the concentration-time curve, a measure of exposure.

These data come from ChEMBL document CHEMBL6083286, “Discovery of ERD-12310A as an Exceptionally Potent and Orally Efficacious PROTAC Degrader of Estrogen Receptor α (ERα)” (J Med Chem, 2024).
